We go through 28 compounds from patent US7718673B2, “Isonipecotamides for the treatment of integrin-mediated disorders” (Ortho-McNeil Pharmaceutical, Inc., priority 1999, dated 2010).

One data set addresses T1, Human αvβ3 (Homo sapiens, UniProt P05106+P06756).
T1 construct: purchased Chemicon International Inc., Temecula, Calif
The data set is described as follows: In vitro solid phase purified αvβ3 binding assay (vitronectin/αvβ3). As for the experimental part: In Vitro Solid Phase Purified αvβ3 Binding Assay
(§1) The vitronectin/αvβ3 binding assay methods were derived from Mehta et al. (Biochem J. 1998, 330, 861). Human αvβ3 (Chemicon International Inc., Temecula, Calif.), at a concentration of 1 μg/ml dissolved in Tris buffer (20 mM Tris, 1 mM CaCl2, […], 10 μM MnCl2, 150 mM NaCl), was immobilized on Immulon 96 well plates (Dynex Technologies, Chantilly, Va.) overnight at 4° C. Plates were washed and treated with blocking buffer (3% BSA in Tris buffer) for 2 h at 37° C. Plates were then rinsed 2 times with Tris buffer containing 0.3% BSA and 0.2% Tween20 (polyoxyethylenesorbitan monolaurate). Five minutes prior to the addition of 5 nM vitronectin (Sigma, St. Louis, Mo.), synthesized compounds were added to wells in duplicate. Each plate included c-RGDfV as an internal control. Following a 3 hour incubation at 37° C., plates were washed 5 times in assay buffer. An anti-human vitronectin IgG rabbit polyclonal antibody (Calbiochem, San Diego, Calif.) was added (1:2000) and plates were incubated for 1 hour at room temperature. VectaStain ABC peroxidase kit reagents (Vector Laboratories, Burlingame, Calif.) employing a biotin labeled anti-rabbit IgG, were utilized for detection of bound antibody. Plates were read at 490 nm on a Molecular Devices (Sunnyvale, Calif.) microplate reader.

In data set [1] the target is RGD-affinity purified GPIIb/IIIa (Homo sapiens, UniProt P05106+P08514). As to the kind of experiment: In vitro solid phase purified GPIIb/IIIa binding assay (biotinylated fibrinogen). To be noted: fibrinogen binding to immobilized GPIIb/IIIa; read-out: IIb/IIIa IC50. As for the experimental part:
In Vitro Solid Phase Purified GP IIB/IIIA Binding Assay
The plate was covered and incubated overnight at 4° C. The GPIIb/IIIa solution was discarded and 150 μl of 5% BSA was added and incubated at RT for 1-3 h. The plate was washed extensively with modified Tyrodes buffer. Biotinylated fibrinogen (25 μl/well) at 2× final concentration was added to the wells that contain the test compounds (25 μl/well). The plate was covered and incubated at RT for 2-4 h. Twenty minutes prior to incubation completion, one drop of Reagent A (VectaStain ABC Horse Radish Peroxidase kit, Vector Laboratories, Inc.) and one drop Reagent B were added with mixing to 5 mL modified Tyrodes buffer mix and let stand. The ligand solution was discarded and the plate washed (5×200 μl/well) with modified Tyrodes buffer. Vecta Stain HRP-Biotin-Avidin reagent (50 μl/well, as prepared above) was added and incubated at RT for 15 min. The Vecta Stain solution was discarded and the wells washed (5×200 μl/well) with modified Tyrodes buffer. Developing buffer (10 mL of 50 mM citrate/phosphate buffer @ pH 5.3, 6 mg o-phenylenediamine, 6 μl 30% H2O2; 50 μl/well) was added and incubated at RT for 3-5 min, and then 2 NH2SO4 (50 μl/well) was added. The absorbance was read at 490 nm.

For another data set, the target named is T2, human purified αvβ5 (Homo sapiens, UniProt P06756+P18084).
T2 construct: purchased Chemicon International, Inc
T2 sequence (P06756 31-889 limits assumed): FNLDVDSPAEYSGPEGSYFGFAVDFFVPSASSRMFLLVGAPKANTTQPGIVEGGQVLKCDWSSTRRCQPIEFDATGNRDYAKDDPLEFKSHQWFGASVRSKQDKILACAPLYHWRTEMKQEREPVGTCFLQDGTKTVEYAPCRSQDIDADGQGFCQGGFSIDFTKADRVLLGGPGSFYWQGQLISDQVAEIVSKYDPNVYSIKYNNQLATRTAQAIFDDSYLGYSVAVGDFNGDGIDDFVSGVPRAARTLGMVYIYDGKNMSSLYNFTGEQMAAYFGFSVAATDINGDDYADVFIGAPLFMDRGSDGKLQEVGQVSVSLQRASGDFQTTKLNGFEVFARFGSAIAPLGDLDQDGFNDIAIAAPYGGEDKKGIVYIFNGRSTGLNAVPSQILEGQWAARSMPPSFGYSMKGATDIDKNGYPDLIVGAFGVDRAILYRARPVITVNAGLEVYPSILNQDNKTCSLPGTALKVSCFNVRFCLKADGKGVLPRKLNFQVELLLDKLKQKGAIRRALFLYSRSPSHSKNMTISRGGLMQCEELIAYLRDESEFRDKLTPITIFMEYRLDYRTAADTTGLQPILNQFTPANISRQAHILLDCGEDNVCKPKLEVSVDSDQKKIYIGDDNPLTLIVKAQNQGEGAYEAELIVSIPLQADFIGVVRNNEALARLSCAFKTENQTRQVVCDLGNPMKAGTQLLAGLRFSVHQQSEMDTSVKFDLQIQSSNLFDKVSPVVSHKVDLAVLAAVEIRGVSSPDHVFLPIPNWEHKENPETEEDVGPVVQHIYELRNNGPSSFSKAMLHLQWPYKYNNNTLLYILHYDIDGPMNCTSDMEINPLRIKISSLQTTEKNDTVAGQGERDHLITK
T2 sequence (P06756 891-1048 partner limits assumed): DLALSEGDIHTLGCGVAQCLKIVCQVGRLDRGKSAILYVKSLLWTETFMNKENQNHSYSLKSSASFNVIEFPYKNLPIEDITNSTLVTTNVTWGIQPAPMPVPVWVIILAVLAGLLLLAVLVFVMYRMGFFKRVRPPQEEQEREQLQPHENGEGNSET
T2 sequence (P18084 24-799): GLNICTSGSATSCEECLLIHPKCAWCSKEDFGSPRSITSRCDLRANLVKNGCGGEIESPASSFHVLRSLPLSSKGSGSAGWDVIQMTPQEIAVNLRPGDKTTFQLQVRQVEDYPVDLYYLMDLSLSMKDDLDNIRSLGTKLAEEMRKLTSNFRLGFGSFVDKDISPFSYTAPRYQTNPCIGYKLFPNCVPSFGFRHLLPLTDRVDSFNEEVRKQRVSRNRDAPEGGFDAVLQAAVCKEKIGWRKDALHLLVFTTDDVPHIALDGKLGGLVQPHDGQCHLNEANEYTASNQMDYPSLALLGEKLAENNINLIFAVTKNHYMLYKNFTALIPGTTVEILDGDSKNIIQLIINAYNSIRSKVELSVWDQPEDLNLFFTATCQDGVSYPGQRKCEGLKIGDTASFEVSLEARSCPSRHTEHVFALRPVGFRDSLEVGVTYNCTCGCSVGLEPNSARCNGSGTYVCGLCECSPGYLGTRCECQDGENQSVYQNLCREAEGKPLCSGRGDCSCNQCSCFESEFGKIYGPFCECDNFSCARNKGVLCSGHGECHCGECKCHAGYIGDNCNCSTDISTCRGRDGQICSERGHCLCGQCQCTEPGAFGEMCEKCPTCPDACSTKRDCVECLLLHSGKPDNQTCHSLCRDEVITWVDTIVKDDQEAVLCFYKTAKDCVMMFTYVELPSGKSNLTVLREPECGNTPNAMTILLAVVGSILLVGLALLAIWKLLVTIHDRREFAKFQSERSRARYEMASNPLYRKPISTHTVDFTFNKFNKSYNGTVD
The data set is described as follows: In vitro solid phase purified αvβ5 binding assay (vitronectin/αvβ5). To be noted: for IC50: vitronectin binding to immobilized αvβ5; for inhibition at 5 µM: read-out: αvβ5 Percent inhibition at 5 μM. How it is done:
as §1
In Vitro Solid Phase Purified αvβ5 Binding Assay
The vitronectin/αvβ5 binding assay method was performed in the same manner as the vitronectin/αvβ3 binding assay (EXAMPLE 64) immobilizing with 1 μg/ml of human purified αvβ5 (Chemicon International, Inc.) on to Immulon 96 well plates (Dynex Technologies) instead of αvβ3. All other aspects of the assay including buffers, reagents, and incubation times remain unchanged.

Setting [2] is: vitronectin binding to immobilized αvβ3, read-out: αvβ3 IC50.

Like-named read-outs stand apart in the source and are kept apart here.

T1 sequence (P06756 31-889 limits assumed): as the sequence (P06756 31-889 limits assumed) above
T1 sequence (P06756 891-1048 partner limits assumed): as the sequence (P06756 891-1048 partner limits assumed) above
T1 sequence (P05106 27-788): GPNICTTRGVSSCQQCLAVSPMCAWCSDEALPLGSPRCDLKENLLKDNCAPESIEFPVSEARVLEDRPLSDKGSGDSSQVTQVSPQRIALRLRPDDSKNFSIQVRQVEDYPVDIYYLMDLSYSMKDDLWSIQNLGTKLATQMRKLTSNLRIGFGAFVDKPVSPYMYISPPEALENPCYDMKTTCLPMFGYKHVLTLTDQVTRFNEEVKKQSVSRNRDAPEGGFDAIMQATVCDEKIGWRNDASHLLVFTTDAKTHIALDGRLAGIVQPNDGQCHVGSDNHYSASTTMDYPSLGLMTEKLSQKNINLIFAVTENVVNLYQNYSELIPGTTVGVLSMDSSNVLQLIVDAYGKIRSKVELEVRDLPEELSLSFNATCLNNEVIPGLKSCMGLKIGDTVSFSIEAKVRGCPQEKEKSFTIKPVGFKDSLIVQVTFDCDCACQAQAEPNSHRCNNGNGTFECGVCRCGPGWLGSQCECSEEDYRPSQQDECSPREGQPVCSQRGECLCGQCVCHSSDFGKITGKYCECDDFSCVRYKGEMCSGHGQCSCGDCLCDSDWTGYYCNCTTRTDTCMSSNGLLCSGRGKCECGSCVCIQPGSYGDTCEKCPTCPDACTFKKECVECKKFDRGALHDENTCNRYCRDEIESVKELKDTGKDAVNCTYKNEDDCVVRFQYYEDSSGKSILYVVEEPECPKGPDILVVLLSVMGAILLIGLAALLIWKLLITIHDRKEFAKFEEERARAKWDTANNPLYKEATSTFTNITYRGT
RGD-affinity purified GPIIb/IIIa, sequence (P08514 32-887 limits assumed): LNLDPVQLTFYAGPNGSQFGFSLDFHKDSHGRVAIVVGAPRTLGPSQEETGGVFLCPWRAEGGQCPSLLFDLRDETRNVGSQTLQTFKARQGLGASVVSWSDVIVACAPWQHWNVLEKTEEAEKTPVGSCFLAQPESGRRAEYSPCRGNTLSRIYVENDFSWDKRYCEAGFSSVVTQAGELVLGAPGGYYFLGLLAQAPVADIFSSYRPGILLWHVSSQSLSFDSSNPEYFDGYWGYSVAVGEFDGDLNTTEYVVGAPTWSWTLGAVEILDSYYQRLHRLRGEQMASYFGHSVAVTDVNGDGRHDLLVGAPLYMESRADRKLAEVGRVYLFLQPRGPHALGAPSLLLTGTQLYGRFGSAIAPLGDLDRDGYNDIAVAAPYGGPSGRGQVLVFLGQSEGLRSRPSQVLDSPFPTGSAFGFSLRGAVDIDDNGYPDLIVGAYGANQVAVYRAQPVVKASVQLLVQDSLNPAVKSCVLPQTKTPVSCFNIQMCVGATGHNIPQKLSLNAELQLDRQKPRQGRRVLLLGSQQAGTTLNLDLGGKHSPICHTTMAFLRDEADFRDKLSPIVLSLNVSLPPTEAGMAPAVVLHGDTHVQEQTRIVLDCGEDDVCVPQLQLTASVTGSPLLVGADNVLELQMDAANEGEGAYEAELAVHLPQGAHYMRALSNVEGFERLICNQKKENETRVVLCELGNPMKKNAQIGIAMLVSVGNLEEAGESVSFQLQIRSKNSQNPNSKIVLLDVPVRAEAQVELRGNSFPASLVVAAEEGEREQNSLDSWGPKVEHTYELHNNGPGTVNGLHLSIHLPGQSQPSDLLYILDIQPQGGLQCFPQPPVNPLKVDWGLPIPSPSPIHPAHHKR
RGD-affinity purified GPIIb/IIIa, sequence (P08514 891-1039 partner limits assumed): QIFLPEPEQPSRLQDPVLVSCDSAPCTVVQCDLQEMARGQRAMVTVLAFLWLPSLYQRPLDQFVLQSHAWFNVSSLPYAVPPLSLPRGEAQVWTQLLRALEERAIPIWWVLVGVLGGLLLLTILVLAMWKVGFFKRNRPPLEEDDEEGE
RGD-affinity purified GPIIb/IIIa, sequence (P05106 27-788): as the sequence (P05106 27-788) above

`O=C(O)C[C@H](NC(=O)C1CCN(C(=O)CCCNC2=NCCN2)CC1)c1cnc2ccccc2c1` [Compound 1, β-[[[1-[4-[(4,5-dihydro-1H-imidazol-2-yl)amino]-1-oxobutyl]-4-piperidinyl]carbonyl]amino]-, (β^3S)-3-quinolinepropanoic acid]: the IC50 on Human αvβ3 came to 3.7 nM; in data set [1], 30 nM; at human purified αvβ5 it was 25 nM.
Take `O=C(N[C@@H](CNC(=O)C1CCN(C(=O)CCCNC2=NCCN2)CC1)C(=O)O)OCc1ccccc1` [Compound 2, 3-[[[1-[4-[(4,5-dihydro-1H-imidazol-2-yl)amino]-1-oxobutyl]-4-piperidinyl]carbonyl]amino]-N-[(phenylmethoxy)carbonyl]-L-alanine]: the IC50 at Human αvβ3 (setting [2]) worked out at 5.8 nM; in data set [1], 8.9 nM; on human purified αvβ5, 21 nM.
A word on the melting point: it is the temperature of the solid-liquid transition. The compound `O=C(O)C[C@H](NC(=O)C1CCN(C(=O)CCCNc2ccccn2)CC1)c1cnc2ccccc2c1` [Compound 6, β-[[[1-[1-oxo-4-(2-pyridinylamino)butyl]-4-piperidinyl]carbonyl]amino]-, (β^3S)-3-quinolinepropanoic acid] displayed a melting point of 87 to 90 °C. On Human αvβ3 (setting [2]), the IC50 came out at 4 nM. For the same compound, in data set [1], the IC50 was found to be 460 nM.
Turning to `CC(CNC1=NCCN1)C(=O)N1CCC(C(=O)NC[C@H](NC(=O)OCc2ccccc2)C(=O)O)CC1` (stereo partly drawn) [Compound 16, 3-[[[1-[3-[(4,5-dihydro-1H-imidazol-2-yl)amino]-2-methyl-1-oxopropyl]-4-piperidinyl]carbonyl]amino]-N-[(phenylmethoxy)carbonyl]-L-alanine], the IC50 at Human αvβ3 (setting [2]) was found to be 19 nM; in data set [1], 18 nM; at human purified αvβ5, 38 nM.
In the same order, the values of `COc1ccc(C(CC(=O)O)NC(=O)C2CCN(C(=O)CCCNC3=NCCN3)CC2)cc1OC` (stereo not shown) [Compound 34] are 29 nM, 1500 nM and > 5000 nM.
Consider `O=C(O)C[C@H](NC(=O)C1CCN(C(=O)OCCNC2=NCCN2)CC1)c1cccnc1` [Compound 40], for which the IC50 was found to be 12 nM on Human αvβ3 (setting [2]) and 1100 nM in data set [1].
With `Cc1cccnc1NCCCC(=O)N1CCC(C(=O)NC[C@H](NC(=O)OCc2ccccc2)C(=O)O)CC1` [Compound 41], the IC50 at Human αvβ3 (setting [2]) is > 300 nM; in data set [1], 110 nM.
Turning to `COC(=O)[C@H](CNC(=O)C1CCN(C(=O)CCCNC2=NCCN2)CC1)NC(=O)OCc1ccccc1` [Compound 42], the IC50 came to 170 nM on Human αvβ3 (setting [2]) and 140 nM in data set [1].
With `O=C(O)CC(NC(=O)C1CCN(C(=O)CCCNC2=NCCN2)CC1)c1ccc(F)c(F)c1` (stereo not shown) [Compound 43], the IC50 at Human αvβ3 (setting [2]) was found to be 230 nM; in data set [1], 1300 nM.
`COC(=O)C[C@H](NC(=O)C1CCN(C(=O)CCCNC2=NCCN2)CC1)c1cnc2ccccc2c1` [Compound 44]: the results for the IC50 (on Human αvβ3 (setting [2]); in data set [1]; at human purified αvβ5) were 28 nM, 360 nM and 2900 nM, respectively.
In general, inhibition refers to the share of the control response that was lost under treatment. Consider `CCN(CC)C(=O)COC(=O)CC(NC(=O)C1CCN(C(=O)CCCNC2=NCCN2C(=O)OC(C)(C)C)CC1)c1cnc2ccccc2c1` (stereo not shown) [Compound 45], for which the figures for the IC50 (on Human αvβ3 (setting [2]); in data set [1]) were 3700 nM and 14000 nM, respectively. The inhibition at 5 µM on human purified αvβ5 stood at 40%.
On to `CCN(CC)C(=O)COC(=O)CC(NC(=O)C1CCN(C(=O)CCCNC2=NCCN2)CC1)c1cnc2ccccc2c1` (stereo not shown) [Compound 46], for which the IC50 at Human αvβ3 (setting [2]) was 150 nM; in data set [1], 1600 nM; on human purified αvβ5, > 5000 nM.
With `CC(CCNC1=NCCN1)C(=O)N1CCC(C(=O)NC[C@H](NC(=O)OCc2ccccc2)C(=O)O)CC1` (stereo partly drawn) [Compound 47, 3-[[[1-[4-[(4,5-dihydro-1H-imidazol-2-yl)amino]-2-methyl-1-oxobutyl]-4-piperidinyl]carbonyl]amino]-N-[(phenylmethoxy)carbonyl]-L-alanine], the IC50 on Human αvβ3 (setting [2]) was found to be 4 nM; in data set [1] it was 28 nM.
For the compound `CC(CCNC1=NCCN1)C(=O)N1CCC(C(=O)N[C@@H](CC(=O)O)Cc2ccccc2)CC1` (stereo partly shown) [Compound 48], the results for the IC50 (on Human αvβ3 (setting [2]); in data set [1]) were 510 nM and 1100 nM, respectively.
In the case of `C=CC(CCC(=O)N1CCC(C(=O)NC[C@H](NC(=O)OCc2ccccc2)C(=O)O)CC1)NC1=NCCN1` (stereo partly shown) [Compound 49], the figures for the IC50 (at Human αvβ3 (setting [2]); in data set [1]; at human purified αvβ5) were 39 nM, 12 nM and 210 nM, respectively.
Consider `C=CC(N)CCC(=O)N1CCC(C(=O)NC[C@H](NC(=O)OCc2ccccc2)C(=O)O)CC1` (stereo partly drawn) [Compound 50, 3-[[[1-(4-amino-1-oxo-5-hexenyl)-4-piperidinyl]carbonyl]amino]-N-[(phenylmethoxy)carbonyl]-L-alanine], for which the IC50 at Human αvβ3 (setting [2]) was 3900 nM; in data set [1], 7.4 nM. The inhibition at 5 µM on human purified αvβ5 was determined as 38%.
`COC(=O)[C@H](CNC(=O)C1CCN(C(=O)C(C)CNC2=NCCN2)CC1)NC(=O)OCc1ccccc1` (stereo partly shown) [Compound 51]: the IC50 turned out to be 270 nM at Human αvβ3 (setting [2]), 290 nM in data set [1] and 2000 nM at human purified αvβ5.
For the compound `CC(CNC1=NCCN1)C(=O)N1CCC(C(=O)N[C@@H](CC(=O)O)c2cccnc2)CC1` (stereo partly shown) [Compound 52], the IC50 on Human αvβ3 (setting [2]) worked out at 250 nM; in data set [1], 2700 nM; on human purified αvβ5, 760 nM.
For `O=C(N[C@@H](CNC(=O)C1CCN(C(=O)c2ccc(CNC3=NCCN3)cc2)CC1)C(=O)O)OCc1ccccc1` [Compound 53, 3-[[[1-[4-[[(4,5-dihydro-1H-imidazol-2-yl)amino]methyl]benzoyl]-4-piperidinyl]carbonyl]amino]-N-[(phenylmethoxy)carbonyl]-L-alanine], the IC50 was found to be 570 nM at Human αvβ3 (setting [2]) and 1.5 nM in data set [1].
For `CC(CNC1=NCCN1)CC(=O)N1CCC(C(=O)NC[C@H](NC(=O)OCc2ccccc2)C(=O)O)CC1` (stereo partly shown) [Compound 54], the IC50 on Human αvβ3 (setting [2]) came out at 72 nM; in data set [1], 13 nM.
For `O=C(N[C@@H](CNC(=O)C1CCN(C(=O)/C=C/CNC2=NCCN2)CC1)C(=O)O)OCc1ccccc1` [Compound 55], the IC50 on Human αvβ3 (setting [2]) was 12 nM; in data set [1] it was 26 nM.
As to `NCCCC(=O)N1CCC(C(=O)NC[C@H](NC(=O)OCc2ccccc2)C(=O)O)CC1` [Compound 56], the IC50 is > 5000 nM at Human αvβ3 (setting [2]) and 49 nM in data set [1].
As for `O=C(N[C@H](CNC(=O)C1CCN(C(=O)CCCNC2=NCCS2)CC1)C(=O)O)OCc1ccccc1` [Compound 57], the figures for the IC50 (at Human αvβ3 (setting [2]); in data set [1]) were 350 nM and 130 nM, respectively.
Consider `N=C(N)NOCCC(=O)N1CCC(C(=O)NC[C@H](NC(=O)OCc2ccccc2)C(=O)O)CC1` [Compound 58], for which the IC50 was determined as 40 nM on Human αvβ3 (setting [2]), 260 nM in data set [1] and 71 nM at human purified αvβ5.
Turning to `O=C(NCCCC(=O)N1CCC(C(=O)NC[C@H](NC(=O)OCc2ccccc2)C(=O)O)CC1)NCc1ccccc1` [Compound 59], the IC50 on Human αvβ3 (setting [2]) amounted to 160 nM; in data set [1], 510 nM.
On to `O=C(N[C@@H](CNC(=O)C1CCN(C(=O)CCONC2=NCCN2)CC1)C(=O)O)OCc1ccccc1` [Compound 60], for which the IC50 at Human αvβ3 (setting [2]) is 27 nM; in data set [1], 190 nM; on human purified αvβ5, 86 nM.
On to `O=C(O)CC(NC(=O)C1CCN(C(=O)CCONC2=NCCN2)CC1)c1ccc2c(c1)OCO2` (stereo not drawn) [Compound 61, β-[[[1-[3-[[(4,5-dihydro-1H-imidazol-2-yl)amino]oxy]-1-oxopropyl]-4-piperidinyl]carbonyl]amino]-1,3-benzodioxole-5-propanoic acid], for which the IC50 at Human αvβ3 (setting [2]) worked out at 180 nM; in data set [1] it was 2700 nM.
On the same counts, the results for `O=C(O)CC(NC(=O)C1CCN(C(=O)CCCNc2ccccn2)CC1)c1ccc2c(c1)OCO2` (stereo not drawn) [Compound 62, β-[[[1-[1-oxo-4-(2-pyridinylamino)butyl]-4-piperidinyl]carbonyl]amino]-1,3-benzodioxole-5-propanoic acid] are > 500 nM and 380 nM.
